Data published in PubChem BioAssay AID2060903 (Molecular Pharmacology Branch, DTP, NCI, 2025).

Test system: 377384-186-R-J1-PDC complex spheroid viability
Assay: Anticancer human tumor 377384-186-R-J1-PDC patient-derived pancreatic carcinoma cell line growth inhibition [RAS]
Conditions: for IC50: curve of first compound; for viability, T/C: stronger effect = lower value
Method in brief: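 Agents were tested in combination matrices in half-log decrements from a top concentration at or near clinical Cmax (10 microM if undetermined). Targets were multi-cell spheroids of tumour lines plus HUVEC and MSC stromal cells.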

[1] = second compound 0.000949 µM, first compound 0.0316 µM
[2] = second compound 0.000949 µM, first compound 0.1 µM
[3] = second compound 0.000949 µM, first compound 0.316 µM
[4] = second compound 0.000949 µM, first compound 1 µM
[5] = second compound 0.000949 µM, first compound 3.16 µM
[6] = second compound 0.000949 µM, first compound 10 µM
[7] = second compound 0.003 µM, first compound 0.0316 µM
[8] = second compound 0.003 µM, first compound 0.1 µM
[9] = second compound 0.003 µM, first compound 0.316 µM
[10] = second compound 0.003 µM, first compound 1 µM
[11] = second compound 0.003 µM, first compound 3.16 µM
[12] = second compound 0.003 µM, first compound 10 µM
[13] = second compound 0.00949 µM, first compound 0.0316 µM
[14] = second compound 0.00949 µM, first compound 0.1 µM
[15] = second compound 0.00949 µM, first compound 0.316 µM
[16] = second compound 0.00949 µM, first compound 1 µM
[17] = second compound 0.00949 µM, first compound 3.16 µM
[18] = second compound 0.00949 µM, first compound 10 µM
[19] = second compound 0.03 µM, first compound 0.0316 µM
[20] = second compound 0.03 µM, first compound 0.1 µM
[21] = second compound 0.03 µM, first compound 0.316 µM
[22] = second compound 0.03 µM, first compound 1 µM
[23] = second compound 0.03 µM, first compound 3.16 µM
[24] = second compound 0.03 µM, first compound 10 µM
[25] = second compound 0.0949 µM, first compound 0.0316 µM
[26] = second compound 0.0949 µM, first compound 0.1 µM
[27] = second compound 0.0949 µM, first compound 0.316 µM
[28] = second compound 0.0949 µM, first compound 1 µM
[29] = second compound 0.0949 µM, first compound 3.16 µM
[30] = second compound 0.0949 µM, first compound 10 µM
[31] = second compound 0.3 µM, first compound 0.0316 µM
[32] = second compound 0.3 µM, first compound 0.1 µM
[33] = second compound 0.3 µM, first compound 0.316 µM
[34] = second compound 0.3 µM, first compound 1 µM
[35] = second compound 0.3 µM, first compound 3.16 µM
[36] = second compound 0.3 µM, first compound 10 µM
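Also: spheroids exposed to compounds for seven days before readout.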

In the case of `CC(=O)OC12COC1CC(O)C1(C)C(=O)C(O)C3=C(C)C(OC(=O)C(O)C(NC(=O)OC(C)(C)C)c4ccccc4)CC(O)(C(OC(=O)c4ccccc4)C21)C3(C)C` (stereo unspecified) + CCn1c(-c2cccnc2C(C)OC)c2c3cc(ccc31)N1CCOC(CC(NC(=O)C(C(C)C)N(C)C(=O)C3(F)CCN(C(=O)C#CC(C)(C)N(C)C)CC3)C(=O)N3CCCC(N3)C(=O)OCC(C)(C)C2)C1, the IC50 (second compound 0.000949 µM) is reported as less than 31.6 nM, the IC50 (second compound 0.003 µM) is reported as less than 31.6 nM and the IC50 (second compound 0.00949 µM) is reported as less than 31.6 nM. It also gave an IC50 (second compound 0.03 µM) of less than 31.6 nM, an IC50 (second compound 0.0949 µM) of less than 31.6 nM and an IC50 (second compound 0.3 µM) of less than 31.6 nM. It also gave a viability, T/C [1] of 10.2%, a viability, T/C [2] of 10.2% and a viability, T/C [3] of 11%. The viability, T/C [4] was 14.1%, the viability, T/C [5] was 14.5% and the viability, T/C [6] was 15.6%. It also gave a viability, T/C [7] of 11.1%, a viability, T/C [8] of 15.1% and a viability, T/C [9] of 11%. It also gave a viability, T/C [10] of 12.9%, a viability, T/C [11] of 14.7% and a viability, T/C [12] of 15.9%. For the same molecule, the viability, T/C [13] was 10.5%, the viability, T/C [14] was 11.6% and the viability, T/C [15] was 12.5%. The viability, T/C [16] was 12%, the viability, T/C [17] was 13.7% and the viability, T/C [18] was 14.4%. The viability, T/C [19] was 9.38%, the viability, T/C [20] was 11.6% and the viability, T/C [21] was 12.8%. It also gave a viability, T/C [22] of 12.5%, a viability, T/C [23] of 13.4% and a viability, T/C [24] of 15.4%. For the same molecule, the viability, T/C [25] was 9.14%, the viability, T/C [26] was 10.3% and the viability, T/C [27] was 12.3%. For the same molecule, the viability, T/C [28] was 12.8%, the viability, T/C [29] was 13.1% and the viability, T/C [30] was 12.8%. For the same molecule, the viability, T/C [31] was 6.36%, the viability, T/C [32] was 8.8% and the viability, T/C [33] was 9.95%. The viability, T/C [34] was 11.7%, the viability, T/C [35] was 12.3% and the viability, T/C [36] was 12%.
For `O=C(c1ccc(F)c(F)c1Nc1ccc(I)cc1F)N1CC(O)([C@@H]2CCCCN2)C1` + C=CC(=O)N1CCN(c2nc(OCC3CCCN3C)nc3c(F)c(-c4nc(N)cc(C)c4C(F)(F)F)c(Cl)cc23)C(C)C1, the IC50 (second compound 0.00316 µM) was 42.5 nM, the IC50 (second compound 0.01 µM) was 33 nM and the IC50 (second compound 0.0316 µM) was 36.7 nM. The IC50 (second compound 0.1 µM) was 37.3 nM, the IC50 (second compound 0.316 µM) was 40.6 nM and the IC50 (second compound 1 µM) was 45.1 nM. It also gave a viability, T/C (second compound 0.00316 µM, first compound 0.00316 µM) of 81.3%, a viability, T/C (second compound 0.00316 µM, first compound 0.01 µM) of 79.2% and a viability, T/C (second compound 0.00316 µM, first compound 0.0316 µM) of 58.5%. For the same molecule, the viability, T/C (second compound 0.00316 µM, first compound 0.1 µM) was 23.8%, the viability, T/C (second compound 0.00316 µM, first compound 0.316 µM) was 3.06% and the viability, T/C (second compound 0.00316 µM, first compound 1 µM) was 0.45%. For the same molecule, the viability, T/C (second compound 0.01 µM, first compound 0.00316 µM) was 94.9%, the viability, T/C (second compound 0.01 µM, first compound 0.01 µM) was 77.9% and the viability, T/C (second compound 0.01 µM, first compound 0.0316 µM) was 51.3%. The viability, T/C (second compound 0.01 µM, first compound 0.1 µM) was 23.6%, the viability, T/C (second compound 0.01 µM, first compound 0.316 µM) was 2.14% and the viability, T/C (second compound 0.01 µM, first compound 1 µM) was 0.43%. For the same molecule, the viability, T/C (second compound 0.0316 µM, first compound 0.00316 µM) was 93.3%, the viability, T/C (second compound 0.0316 µM, first compound 0.01 µM) was 73.3% and the viability, T/C (second compound 0.0316 µM, first compound 0.0316 µM) was 58.9%. The viability, T/C (second compound 0.0316 µM, first compound 0.1 µM) was 20%, the viability, T/C (second compound 0.0316 µM, first compound 0.316 µM) was 2.38% and the viability, T/C (second compound 0.0316 µM, first compound 1 µM) was 0.3%. For the same molecule, the viability, T/C (second compound 0.1 µM, first compound 0.00316 µM) was 94.6%, the viability, T/C (second compound 0.1 µM, first compound 0.01 µM) was 68.5% and the viability, T/C (second compound 0.1 µM, first compound 0.0316 µM) was 62.3%. For the same molecule, the viability, T/C (second compound 0.1 µM, first compound 0.1 µM) was 20.7%, the viability, T/C (second compound 0.1 µM, first compound 0.316 µM) was 2.8% and the viability, T/C (second compound 0.1 µM, first compound 1 µM) was 0.78%. It also gave a viability, T/C (second compound 0.316 µM, first compound 0.00316 µM) of 77.7%, a viability, T/C (second compound 0.316 µM, first compound 0.01 µM) of 74.7% and a viability, T/C (second compound 0.316 µM, first compound 0.0316 µM) of 57.5%. The viability, T/C (second compound 0.316 µM, first compound 0.1 µM) was 22.5%, the viability, T/C (second compound 0.316 µM, first compound 0.316 µM) was 2.78% and the viability, T/C (second compound 0.316 µM, first compound 1 µM) was 0.48%. The viability, T/C (second compound 1 µM, first compound 0.00316 µM) was 88.8%, the viability, T/C (second compound 1 µM, first compound 0.01 µM) was 80.8% and the viability, T/C (second compound 1 µM, first compound 0.0316 µM) was 62%. The viability, T/C (second compound 1 µM, first compound 0.1 µM) was 24.5%, the viability, T/C (second compound 1 µM, first compound 0.316 µM) was 2.77% and the viability, T/C (second compound 1 µM, first compound 1 µM) was 0.56%.
In the case of `CC(C)NCC(C(=O)N1CCN(c2ncnc3c2C(C)CC3O)CC1)c1ccc(Cl)cc1` (stereo unspecified) + CCn1c(-c2cccnc2C(C)OC)c2c3cc(ccc31)N1CCOC(CC(NC(=O)C(C(C)C)N(C)C(=O)C3(F)CCN(C(=O)C#CC(C)(C)N(C)C)CC3)C(=O)N3CCCC(N3)C(=O)OCC(C)(C)C2)C1, the IC50 (second compound 0.000949 µM) is reported as 3790 nM, the IC50 (second compound 0.003 µM) is reported as 2770 nM and the IC50 (second compound 0.00949 µM) is reported as 2770 nM. The IC50 (second compound 0.03 µM) was 2540 nM, the IC50 (second compound 0.0949 µM) was 2080 nM and the IC50 (second compound 0.3 µM) was 2140 nM. For the same molecule, the viability, T/C [1] was 95.4%, the viability, T/C [2] was 93.3% and the viability, T/C [3] was 88.2%. The viability, T/C [4] was 66.9%, the viability, T/C [5] was 56% and the viability, T/C [6] was 32.1%. It also gave a viability, T/C [7] of 104%, a viability, T/C [8] of 106% and a viability, T/C [9] of 85.1%. The viability, T/C [10] was 72.2%, the viability, T/C [11] was 46.9% and the viability, T/C [12] was 29.4%. For the same molecule, the viability, T/C [13] was 102%, the viability, T/C [14] was 95.1% and the viability, T/C [15] was 80.8%. The viability, T/C [16] was 65.3%, the viability, T/C [17] was 48.4% and the viability, T/C [18] was 31%. The viability, T/C [19] was 100%, the viability, T/C [20] was 85.1% and the viability, T/C [21] was 91.4%. The viability, T/C [22] was 66.8%, the viability, T/C [23] was 46.2% and the viability, T/C [24] was 29.3%. The viability, T/C [25] was 91.2%, the viability, T/C [26] was 86.9% and the viability, T/C [27] was 79.2%. For the same molecule, the viability, T/C [28] was 59.6%, the viability, T/C [29] was 44.8% and the viability, T/C [30] was 29.3%. The viability, T/C [31] was 69.4%, the viability, T/C [32] was 78.7% and the viability, T/C [33] was 67.2%. It also gave a viability, T/C [34] of 59.8%, a viability, T/C [35] of 45.3% and a viability, T/C [36] of 27.5%.
